Source: patent US20110313044A1, “Polymorphs of Suberoylanilide Hydroxamic Acid” (URQUIMA S.A., priority 2010, published 2011)
≈ marks a conversion by molar mass, not a printed value.

Experiments:
[1] = physchem; details: thermodynamic from solid
[2] = Physical stability of crystalline forms at room temperature (PXRD, DSC characterisation)
Text: The crystalline products obtained have been characterised by XPRD (FIG. 1 and Table 1) and DSC (FIG. 2).

[3] = Hygroscopicity test; type: physicochemical
[4] = Solubility test Form α vs Form I; details: for solubility: thermodynamic from solid

Work on `O=C(CCCCCCC(=O)Nc1ccccc1)NO` [Form I, suberoylanilide hydroxamic acid] yielded a solubility ([1]; aqueous buffer) of 0.1 mg/mL (≈ 0.378 mM) and a solubility ([1]; organic solvent or mixture) of 21.8 mg/mL (≈ 82.5 mM).
For `O=C(CCCCCCC(=O)Nc1ccccc1)NO` [Form II, suberoylanilide hydroxamic acid], the Polymorph stability [2] was “unstable at room temperature”.
With `O=C(CCCCCCC(=O)Nc1ccccc1)NO` [Form III, suberoylanilide hydroxamic acid] the Polymorph stability [2] was “stable at room temperature”.
For `O=C(CCCCCCC(=O)Nc1ccccc1)NO` [Form α, suberoylanilide hydroxamic acid], the Hygroscopicity [3] was “non-hygroscopic”, the solubility ([4]; HCl 2M, aqueous buffer) was 0.19 mg/mL (≈ 0.719 mM) and the “Solubility versus Form I” value ([4]; methanol and HCl 2M, in words) was “higher solubility”. For the same compound, the solubility ([4]; methanol, organic solvent or mixture) was 30 mg/mL (≈ 113 mM) and the Polymorph stability [2] was “stable at room temperature”.
